Test results as given in patent US10213451B2, “Methods and compounds for modulating the secretion or expression of adhesion proteins or angiopoietins of cells” (PACIFIC ARROW LIMITED, priority 2004, dated 2019).
≈ marks a conversion by molar mass, not a printed value. Where two headings read alike, the source gives them in different places.

Assays:
tumor growth = test: MTT anticancer activity of Y, X and hydrolysis products (FIG. 4C); assay type: cell-based
Description: (§1) MTT Assay. The procedure for MTT assay followed the method described by Carmichael et al. (1987) with modifications. The cells were seeded into a 96-well plate at concentration of 10,000/well for HTB-9, HeLa, H460, HCT116, T98G and OVCAR-3), 15,000/well for DU145, MCF-7, HepG2 and U2OS), and 40,000/well for K562 for 24 hours before drug-treatment. The cells were then exposed to the drugs for 48 hours (72 hours for HepG2 and U2OS, and 96 hours for MCF-7). After the drug-treatment, MTT (0.5 mg/mL) was added to cultures and incubated for an hour. The formazan (product of the reduction of tetrazolium by viable cells) formed and was dissolved with DMSO and the O.D. at 490 nm, and was measured by an ELISA reader. The MTT level of the cells before drug-treatment was also measured (T0). The % cell-growth (% G) is calculated as: % G=(TD−T0/TC−T0)×100(1), where TC or TD represents O.D. readings of control or drug-treated cells. When T0>TD, then the cytotoxicity (LC) expressed as % of the control is calculated as: % LC=(TD−T0/T0)×100(2).
(A) Alkaline Hydrolysis of Xanifolia-Y: 20 mg of Xanifolia-Y was dissolved in 0.5 mL of 1M NaOH. The solution was incubated in an 80° C. water bath for 4 hours. It was cooled to room temperature before being neutralized with 0.5 mL 1 N HCl (adjusted pH to about 3). The mixture was extracted with 2 mL 1-butanol 3 times. The butanol fractions were collected and lyophilized. The hydrolyzed saponin was further purified with HPLC in a C-18 column eluted with 25% acetonitrile.
(B) Acid Hydrolysis of Xanifolia-Y: 15 mg Xanifolia-Y was dissolved in 1 mL of Methanol. 1 mL of 2N HCl was then added. The mixture was refluxed in an 80° C. water bath for 5 hours. The solution was then neutralized by adding 2 mL of 1N NaOH (to a final pH 3-4). The aglycone was then extracted with ethylacetate 3 mL×3. The extracts were collected and pooled. Further isolation of aglycone (sugar-removed Xanifolia-Y) was achieved by HPLC with isocratic elution of 80% acetonitrile.

[1] = system: Fibronectin secretion from ES2 cells; test: Fibronectin secretion (Western blot), ES2 cells; assay type: cell-based, human; settings: for inhibition at 10 µg/mL: Homo sapiens, ES-2, ES2 cells; for Fibronectin secreted into medium, % of DMSO control: 24 hours
Description: Inhibition of Fibronectin secretion is physiological and the determination of its quantity is based on the following criteria: • 1. Fibronectin is secreted from viable cells. Only cell with over 85% viable cells after drug-treatment are employed in these experiments. The viable cells were determined by MTT assay. • 2. For comparison, the immuno-band intensity from each samples are normalized with cell mass. The cell mass was determined by the MTT assay and is assigned as a MTT unit for each cell sample.
Cells: ES2 cells were grew in T-25 flask with RPMI 1640 medium over night before drug-treatment. Drug-treatment: cells cultures were replaced with fresh RPMI medium with Xanifolia-Y (10 ug/ml final concentration) or DMSO (as control) at 0 hour. At 1, 2, 4, 8 and 24 hour, aliquot of culture medium was taken out for Fibronectin determination. Fibronectin was determined by Western blot with monoclonal antibody (SIGMA) specific to human Fibronectin only.
Drug-treatment: cells cultures were replaced with fresh RPMI medium containing Xanifolia-Y (10 ug/ml final concentration) or DMSO (as control) at 0 hour. At 4 hours (A) or 8 hour (B), culture medium was replaced with fresh culture medium without drug. At 2, 4, 8 and 24 hour, aliquot of culture medium was taken out for Fibronectin determination. Fibronectin (FN) was determined by Western blot with monoclonal antibody (SIGMA) specific only to human Fibronectin.
(§2) Drug-treatment: cells cultures were replaced with fresh RPMI medium containing Xanifolia-Y (10 ug/ml final concentration) or DMSO (as control) at 0 hour. At 2, and 18 hour, aliquot of culture medium was taken out for Fibronectin determination (Western blot method). Cell viability at 18 hours was determined by MTT assay. Cultures were replaced with RPMI medium with MTT and incubated for an hour. The formation of formazan was dissolved in DMSO and OD at 570 nm was measured.
Cells and Drug-treatment: same as previous experiments. After 7 or 24 hours, aliquot of culture medium was taken out for Fibronectin determination (Western blot method). Cell viability at 24 hours was determined by MTT assay.
Cells: ES2 cells were grew in RPMI 1640 medium over night before drug-treatment. Drug-treatment: cells cultures were replaced with fresh RPMI medium containing DMSO (as control) [D]; Xanifolia-Y (10 ug/ml) [Y]; or Paclitaxel 10 or 50 ng/ml [T10, ro T50]. After 24 hours, aliquot of culture medium was taken out for Fibronectin determination (Western blot method). Cell viability at 24 hours was determined by MTT assay.
The amount of Fibronectin secreted by cells into medium was determined by Western blot assay. The amount of Fibronectin secreted per cells basis was determined by dividing the Western-band intensity with the MTT unit.
Western Blot: Spent culture medium (0.6 ml) was mixed with SDS sample buffer (0.2 ml), boiled for 3 minutes before loading to SDS gel. Samples (60 ul/lane) were applied to a 6% SDS gel and electrophoresis was conducted with 100 volts for 2 hours. Protein was transferred to a nitrocellulose paper electrophoretically (30 min at 100 volts). The Western blot was incubated with the first antibody (mouse anti-FN, specific to human FN, SIGMA F0916) and second antibody (Anti-mouse IgG AP conjugated, Promega S3721). The immunobands were developed with BCIP/NBT color development system (Promega S3771).

[2] = system: Fibronectin secretion from lung carcinoma cells (H460); test: Fibronectin secretion (Western blot), H460 cells; assay type: cell-based, human; settings: Homo sapiens, NCI-H460, H460 cells, 10 ug/ml
[3] = system: Fibronectin secretion from bladder carcinoma cells (HTB-9); test: Fibronectin secretion (Western blot), HTB-9 cells; assay type: cell-based, human; settings: 10 ug/ml; for inhibition at 10 µg/mL: Homo sapiens
[4] = system: Fibronectin secretion from liver HepG2 cells; test: Fibronectin secretion (Western blot), HepG2 cells; assay type: cell-based, human; settings: 10 ug/ml; for inhibition at 10 µg/mL: Homo sapiens, HepG2, HepG2 cells; for % inhibition of Fibronectin secretion: HepG2 cells
[5] = system: Fibronectin secretion from brain glioblastoma T98G cells; test: Fibronectin secretion (Western blot), T98G cells; assay type: cell-based, human; settings: for inhibition at 10 µg/mL: Homo sapiens, 10 ug/ml
[6] = system: Fibronectin secretion from skin SK-Mel-5 cells; test: Fibronectin secretion (Western blot), SK-MEL-5 cells; assay type: cell-based, human
[7] = system: swelling of rats' feet induced by Carrageenin; test: Carrageenin-induced swollen feet model; assay type: in vivo, SD rats; settings: positive control 10.0 mg/kg fed once;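 further: percent increase in foot volume over pre-inflammation volume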
Description: SD rats, male, weighing 163±18 g were used in the experiment. The tested animals are allowed to acclimate for a week. The rats drink water freely. The rats were randomly divided into 5 groups: control, positive control and 3 test groups, and each group had 8 rats. The dose for 3 groups of rats are 10, 20 and 40 mg/kg. Indometacin for the positive control is 10 mg/kg and fed once after modeling. The dose of CMC-Na for the control group is the same as each test group and fed into the stomach once a day before modeling for 5 days. The tested drug was fed into the stomach 10 minutes before the animal modeling (1 mL/100 g). The volumes of right foot of each rat were measured 0.5, 1, 2 and 4 hours before and after modeling. The volumes of the right hind feet were measured at a different time, 10 minutes after inflammation induced by subcutaneous injection (with syringe needle 7) of 0.05 mL of the 1% of Carrageenin/normal saline mixture into the feet. The Rate of swelling of the feet was calculated, compared with the controls and subject to a student t-test. Rate of swelling (E) (%)=Ltn−Lt0/Lt0×100% • Ltn: volume of foot after the inflammation • Lt0: volume of foot before the inflammation

ES2(ovarian) cells = test: MTT assay ES2; assay type: cell-based, human; settings: for viable cells by MTT units vs DMSO control: 24 hours
Description: as §1
Methods: ES2 cells were exposed to (i) Xanifolia-Y with concentrations of 40, 20, 10, 5, 2.5, and 1.25 ug/ml; or (ii) Paclitaxel with concentrations of […]; or (iii) Combined Xanifolia-Y and Paclitaxel with concentrations of each drug in same order (for example, 40 ug/ml Y plus 10 ng/ml T; 20 ug/ml Y plus 5 ng/ml T, etc. please see FIG. 28). Cells growth under these conditions was determined by the MTT assay.
as §2

CC1O[C@@H](OC2[C@H](OC3[C@H](O[C@H]4C(O[C@@H]5OC(CO)[C@H](O)[C@@H](O)C5O)[C@H](O[C@H]5CC[C@@]6(C)C(CC[C@]7(C)C6CC[C@]68O[C@H](O)[C@]9(C6CC(C)(C)[C@@H](O)[C@@H]9O)[C@H](O)C[C@]87C)C5(C)C)OC(C(=O)O)[C@H]4O)OC(CO)[C@H](O)[C@H]3O)OC(C)[C@H](O)[C@@H]2O)C(O)[C@@H](O)[C@H]1O (some centres unmarked) [AKOH-Mb5]
anticancer activity after alkaline hydrolysis (tumor growth): lost anticancer activity

C/C=C(/C)C(=O)O[C@H]1[C@H](OC(=O)/C(C)=C\C)[C@@]2(CO)C(CC1(C)C)C1=CCC3[C@@]4(C)CC[C@H](O[C@@H]5OC(C(=O)O)[C@@H](O)C(O[C@@H]6OC[C@@H](O)C(O)C6O)C5O[C@@H]5OC(CO)[C@H](O)C(O)C5O)C(C)(C)C4CC[C@@]3(C)[C@]1(C)C[C@H]2O (some centres unmarked) [Ba1]
inhibition at 10 µg/mL ([1]; 10 ug/ml): 30% | inhibition at 10 µg/mL [2]: 19% | inhibition at 10 µg/mL [3]: 25% | inhibition at 10 µg/mL [4]: 33% | inhibition at 10 µg/mL [5]: 26% | inhibition at 10 µg/mL ([6]; Homo sapiens, 10 ug/ml): 10%

COc1ccc2c(c1)c(CC(=O)O)c(C)n2C(=O)c1ccc(Cl)cc1 [Indometacin, reference compound]
Swelling rate after administration (%) ([7]; 0.5 hour): 11.8% | Swelling rate after administration (%) ([7]; 1 hour): 14.7% | Swelling rate after administration (%) ([7]; 2 hours): 12.8% | Swelling rate after administration (%) ([7]; 4 hours): 10.7%

CC(=O)O[C@H]1C(=O)[C@@]2(C)[C@H]([C@H](OC(=O)c3ccccc3)[C@]3(O)C[C@H](OC(=O)[C@H](O)[C@@H](NC(=O)c4ccccc4)c4ccccc4)C(C)=C1C3(C)C)[C@]1(OC(C)=O)CO[C@@H]1C[C@@H]2O [Paclitaxel, reference compound]
viable cells by MTT units vs DMSO control (ES2(ovarian) cells; ES2, 10 ng/ml): 94% | viable cells by MTT units vs DMSO control (ES2(ovarian) cells; ES2, 50 ng/ml): 91% | IC50 (ES2(ovarian) cells; ES2 cells, used singly): 1.25 ng/mL (≈ 1.46 nM) | IC50 (ES2(ovarian) cells; Homo sapiens, ES-2, ES2 cells, combined with Xanifolia-Y, read-out: IC50 value for Paclitaxel when both drugs were used): 0.625 ng/mL | IC50 (ES2(ovarian) cells; Homo sapiens, ES-2, ES2 cells, used singly, read-out: IC50): 1.5 ng/mL (≈ 1.76 nM) | Fibronectin secreted into medium, % of DMSO control ([1]; ES2 cells, 10 ng/ml): 105% | Fibronectin secreted into medium, % of DMSO control ([1]; ES2 cells, 50 ng/ml): 97% | inhibition of Fibronectin secretion ([1]; ES2 cells, 10 to 50 ng/ml): no inhibition

C/C=C(/C)C(=O)O[C@H]1[C@H](OC(=O)/C(C)=C\C)[C@@]2(CO)C(CC1(C)C)C1=CCC3[C@@]4(C)CC[C@H](O[C@@H]5OC(C(=O)O)[C@@H](O)C(O)C5O[C@@H]5OC(CO)[C@H](O)C(O)C5O)C(C)(C)C4CC[C@@]3(C)[C@]1(C)[C@@H](O)[C@H]2O (some centres unmarked) [Xanifolia Y5]
inhibition at 10 µg/mL ([1]; 10 ug/ml): 68% | % inhibition of Fibronectin secretion [4]: have inhibition effect

C/C=C(/C)C(=O)O[C@H]1[C@H](O)[C@@]2(COC(=O)C(C)CC)C(CC1(C)C)C1=CCC3[C@@]4(C)CC[C@H](O[C@@H]5OC(C(=O)O)[C@@H](O)C(O[C@@H]6O[C@@H](CO)C(O)C6O)C5O[C@@H]5OC(CO)[C@H](O)C(O)C5O)C(C)(C)C4CC[C@@]3(C)[C@]1(C)[C@@H](O)[C@H]2O (stereo partly drawn) [Xanifolia Y7, 3-O-[β-D-galactopyranosyl-(1→2)]-α-L-arabinofuranosyl-(1→3)-β-D-glucuronopyranosyl-21-O-angeloyl-28-O-2-methylbutanoyl-3β, 15α, 16α, 21β, 22α, 28-hexahydroxyolean-12-ene]
inhibition at 10 µg/mL ([1]; 10 ug/ml): 34% | inhibition at 10 µg/mL [2]: 18% | inhibition at 10 µg/mL [3]: 60% | inhibition at 10 µg/mL [4]: 10% | inhibition at 10 µg/mL ([5]; T98G): 24%

beta-Escin [reference compound]
growth of cells compared to the DMSO control (MTT) (ES2(ovarian) cells; ES2, 10 ug/ml (F13)): 90% | growth of cells compared to the DMSO control (MTT) (ES2(ovarian) cells; ES2, 20 ug/ml (F13)): 82% | % inhibition of Fibronectin secretion ([1]; ES2 cells, 10 ug/ml): 7% | Fibronectin secreted / FN band intensity, % of DMSO control ([1]; ES2 cells, 10 ug/ml): 93% | % inhibition of Fibronectin secretion ([1]; ES2 cells, 10 ug/ml, listed as β-ES): 19% | % inhibition of Fibronectin secretion ([1]; ES2 cells, 20 ug/ml): 48% | Fibronectin secreted / FN band intensity, % of DMSO control ([1]; ES2 cells, 20 ug/ml): 52% | % inhibition of Fibronectin secretion [3]: 47% | % inhibition of Fibronectin secretion ([4]; listed as ES): have inhibition effect | % inhibition of Fibronectin secretion ([4]; listed as β-ES): 44% | % inhibition of Fibronectin secretion ([5]; 20 ug/ml): 66% | % inhibition of Fibronectin secretion ([6]; 20 ug/ml): 17%
